The values that follow come from patent US20240287138A1, “CYCLIC PEPTIDES FOR INHIBITING TNF RECEPTOR 1 ACTIVITY” (Merck Sharp & Dohme LLC, priority 2023, published 2024).

Where two headings read alike, the source gives them in different places. Numbered stars: 1 amine (or outer) side, 2 acyl side, 3 side chain; on linkers, the order of the positions; unused ones are H or OH. Bridge positions count the residues as written; N and C are the ends. Square brackets hold non-standard residues; d marks the D form. Peptide text beside a SMILES is read from it. * marks the point of attachment. Trp(βS-Me,7-OMe) = COc1cccc2c([C@H](C)[C@H](N)C(=O)O)c[nH]c12; Phe(4-CH2CH2COOH) = N[C@@H](Cc1ccc(CCC(=O)O)cc1)C(=O)O; Phe(4-SO2NH2) = N[C@@H](Cc1ccc(S(N)(=O)=O)cc1)C(=O)O; Phe(2-F,4-COOH) = N[C@@H](Cc1ccc(C(=O)O)cc1F)C(=O)O; Trp(7-CN) = N#Cc1cccc2c(C[C@H](N)C(=O)O)c[nH]c12; Trp(7-Cl) = N[C@@H](Cc1c[nH]c2c(Cl)cccc12)C(=O)O; Phe(4-CONH2) = NC(=O)c1ccc(C[C@H](N)C(=O)O)cc1; Phe(4-COOH) = N[C@@H](Cc1ccc(C(=O)O)cc1)C(=O)O; Trp(7-aza) = N[C@@H](Cc1c[nH]c2ncccc12)C(=O)O; Pip(5R-OH) = O=C(O)[C@@H]1CC[C@@H](O)CN1; X1 = O=C([C@@H]1CC[C@H](N[*:1])C1)[*:2]; NMeT = CN[C@H](C(=O)O)[C@@H](C)O; 4Pal = N[C@@H](Cc1ccncc1)C(=O)O; NMeE = CN[C@@H](CCC(=O)O)C(=O)O; dHyp = O=C(O)[C@H]1C[C@H](O)CN1; NEtAla = CCN[C@@H](C)C(=O)O; αMeS = C[C@](N)(CO)C(=O)O; Carboxymethyl = O=C(O)C*; Nle = CCCC[C@H](N)C(=O)O; Sar = CNCC(=O)O Some results are limits rather than exact numbers.

Experiment [1] deals with T1, human TNFR1 extracellular domain (ECD) protein (Homo sapiens, UniProt P19438).
T1 construct: HRV 3C protease cleavage site (C); 6His (C, cleaved yes); made in house; host or cells: Sf21 insect cells (baculovirus), secreted
T1 sequence (P19438 30-211): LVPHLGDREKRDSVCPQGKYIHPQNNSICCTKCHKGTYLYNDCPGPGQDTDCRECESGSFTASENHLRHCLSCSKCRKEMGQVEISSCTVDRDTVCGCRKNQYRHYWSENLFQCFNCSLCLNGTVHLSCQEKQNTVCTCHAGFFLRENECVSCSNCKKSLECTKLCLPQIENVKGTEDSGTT
Briefly: SPR binding affinity to captured human TNFR1 ECD. The gist of the method:
(§1)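 Peptide binding kinetics read by SPR in HEPES pH 7.4 running buffer with 2% DMSO, with TNFR2 ECD tested in parallel for off-target binding. Receptor ECDs, insect-cell expressed and biotinylated at C-terminal avi-tag, were captured via streptavidin. KA derived from association and dissociation rate constants.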
For orientation: Surface plasmon resonance follows binding to a sensor surface in real time, without labels.

Experiment [2] concerns the target T2, human TNFR2 ECD protein (Homo sapiens, UniProt P20333).
T2 construct: HRV 3C protease cleavage site (C); 6His (C, cleaved yes); made in house; host or cells: Sf21 insect cells (baculovirus), secreted
T2 sequence (P20333 23-257): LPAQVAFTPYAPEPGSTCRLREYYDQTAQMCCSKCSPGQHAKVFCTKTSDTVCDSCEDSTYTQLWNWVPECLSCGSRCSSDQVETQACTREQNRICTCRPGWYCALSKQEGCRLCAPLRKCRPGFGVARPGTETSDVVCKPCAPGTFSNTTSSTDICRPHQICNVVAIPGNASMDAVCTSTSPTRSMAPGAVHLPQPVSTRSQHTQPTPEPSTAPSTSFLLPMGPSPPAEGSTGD
Briefly: SPR off-target binding (selectivity) to human TNFR2 ECD. In short, it runs like this:
as §1

The target of experiment [3] is T3, TNFα-induced NF-κB signal transduction pathway (TNFR1 signaling) in THP-1 cells (Homo sapiens, UniProt P19438).
T3 sequence (P19438 30-455): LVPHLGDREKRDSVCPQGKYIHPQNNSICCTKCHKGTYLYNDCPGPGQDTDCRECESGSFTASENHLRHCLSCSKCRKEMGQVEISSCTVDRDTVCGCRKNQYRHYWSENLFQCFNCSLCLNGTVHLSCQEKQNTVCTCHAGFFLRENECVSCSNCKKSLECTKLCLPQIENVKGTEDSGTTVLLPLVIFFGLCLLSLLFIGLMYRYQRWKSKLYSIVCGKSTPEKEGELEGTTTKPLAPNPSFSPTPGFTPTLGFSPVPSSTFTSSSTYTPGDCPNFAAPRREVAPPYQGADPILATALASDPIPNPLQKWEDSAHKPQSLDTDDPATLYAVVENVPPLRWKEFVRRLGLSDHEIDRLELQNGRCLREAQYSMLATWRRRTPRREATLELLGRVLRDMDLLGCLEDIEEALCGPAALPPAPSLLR
The experiment in a line: THP-1 Lucia NF-κB reporter cell assay, inhibition of TNFα-induced NF-κB signaling. It counts as cell-based. Particulars: THP-1 NF-κB Lucia reporter cells, 10 ng/mL TNFα, 16-18 h, secreted luciferase; read-out: THP-1 IC50. In short, it runs like this: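 IC50 from a 4-parameter logistic fit of secreted luciferase luminescence (QUANTI-Luc), normalised to min/max controls. Reporter THP-1 cells were exposed to peptides for 1 h at 37 °C before 10 ng/mL TNFα (final) was added overnight (16–18 h).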

The mark [4] stands for this setting: biotinylated human TNFR1 ECD on streptavidin chip, from kon and koff, read-out: SPR hTNFR1 KD.
The mark [5] stands for this setting: biotinylated human TNFR2 ECD on streptavidin chip, read-out: SPR hTNFR2 KD.

What is called Kd is the free concentration of one partner at which half of the binding sites on the other are occupied at equilibrium, for simple one-to-one binding. Usually IC50 stands for the point on the concentration scale where inhibition reaches its midpoint. `CCCC[C@@H]1NC(=O)CSC[C@@H](C(N)=O)NC(=O)[C@H]([C@@H](C)c2c[nH]c3c(OC)cccc23)NC(=O)CN(C)C(=O)[C@H](Cc2ccc(O)cc2)NC(=O)[C@H](Cc2ccc(C(=O)O)cc2)NC(=O)[C@](C)(CO)NC(=O)[C@H](Cc2c[nH]c3c(Cl)cccc23)NC(=O)[C@H](Cc2ccncc2)NC(=O)[C@H](CC(N)=O)NC(=O)[C@H](CCC(=O)O)N(C)C(=O)[C@H](Cc2c[nH]c3ncccc23)NC(=O)[C@H]([C@@H](C)O)N(C)C(=O)[C@H](Cc2ccncc2)NC1=O` [SEQ ID NO. 29] ({CH2CO}-[Nle][4Pal][NMeT][Trp(7-aza)][NMeE]N[4Pal][Trp(7-Cl)][αMeS][Phe(4-COOH)]Y[Sar][Trp(βS-Me,7-OMe)]C-NH2; thioether N-14): the results for the Kd in experiment [1] and in experiment [2] were 0.28 nM and greater than 1000 nM, respectively. For the same compound, in experiment [3], the 50% inhibitory concentration (IC50) was 3.3 nM.
With `CCCC[C@@H]1NC(=O)[C@@H]2CC[C@@H](C2)NC(=O)[C@H]([C@@H](C)c2c[nH]c3c(OC)cccc23)NC(=O)CN(C)C(=O)[C@H](Cc2ccc(CCC(=O)O)cc2)NC(=O)[C@H](Cc2ccc(S(N)(=O)=O)cc2)NC(=O)[C@](C)(CO)NC(=O)[C@H](Cc2c[nH]c3c(C#N)cccc23)NC(=O)[C@H](Cc2ccc(OCC(=O)O)cc2)NC(=O)[C@H](CC(N)=O)NC(=O)[C@H]2C[C@H](O)CN2C(=O)[C@H](Cc2c[nH]c3ncccc23)NC(=O)[C@@H]2CC[C@@H](O)CN2C(=O)[C@H](Cc2ccncc2)NC1=O` [SEQ ID NO. 30] (cyclo([4Pal][Pip(5R-OH)][Trp(7-aza)][dHyp]NY(Carboxymethyl)[Trp(7-CN)][αMeS][Phe(4-SO2NH2)][Phe(4-CH2CH2COOH)][Sar][Trp(βS-Me,7-OMe)][X1][Nle])), the results for the Kd in experiment [1] (setting [4]) and in experiment [2] (setting [5]) were 0.05 nM and greater than 1000 nM, respectively. Further, the concentration for half-maximal inhibition (IC50) in experiment [3] came out at 0.5 nM.
`CCCC[C@@H]1NC(=O)CSC[C@@H](C(N)=O)NC(=O)[C@H]([C@@H](C)c2c[nH]c3c(OC)cccc23)NC(=O)CN(C)C(=O)[C@H](Cc2ccc(O)cc2)NC(=O)[C@H](Cc2ccc(C(=O)O)cc2)NC(=O)[C@](C)(CO)NC(=O)[C@H](Cc2c[nH]c3c(Cl)cccc23)NC(=O)[C@H](Cc2ccncc2)NC(=O)[C@H](CC(N)=O)NC(=O)[C@H](CCC(=O)O)N(C)C(=O)[C@H](Cc2c[nH]c3ncccc23)NC(=O)[C@H](C)N(CC)C(=O)[C@H](Cc2ccncc2)NC1=O` [SEQ ID NO. 38] ({CH2CO}-[Nle][4Pal][NEtAla][Trp(7-aza)][NMeE]N[4Pal][Trp(7-Cl)][αMeS][Phe(4-COOH)]Y[Sar][Trp(βS-Me,7-OMe)]C-NH2; thioether N-14): the figures for the dissociation constant (Kd) in experiment [1] and in experiment [2] were 0.34 nM and greater than 1000 nM, respectively. Moreover, in experiment [3], the IC50 was found to be 3.1 nM.
On to `CCCC[C@@H]1NC(=O)[C@@H]2CC[C@@H](C2)NC(=O)[C@H]([C@@H](C)c2c[nH]c3c(OC)cccc23)NC(=O)CN(C)C(=O)[C@H](Cc2ccc(C(=O)O)cc2F)NC(=O)[C@H](Cc2ccc(C(N)=O)cc2)NC(=O)[C@](C)(CO)NC(=O)[C@H](Cc2c[nH]c3c(Cl)cccc23)NC(=O)[C@H](Cc2ccc(C(=O)O)cc2F)NC(=O)[C@H](CC(N)=O)NC(=O)[C@H]2C[C@H](O)CN2C(=O)[C@H](Cc2c[nH]c3ccccc23)NC(=O)[C@@H]2CC[C@@H](O)CN2C(=O)[C@H](Cc2ccncc2)NC1=O` [SEQ ID NO. 41] (cyclo([4Pal][Pip(5R-OH)]W[dHyp]N[Phe(2-F,4-COOH)][Trp(7-Cl)][αMeS][Phe(4-CONH2)][Phe(2-F,4-COOH)][Sar][Trp(βS-Me,7-OMe)][X1][Nle])), for which the Kd is 0.12 nM in experiment [1] and greater than 1000 nM in experiment [2]. For the same compound, the IC50 in experiment [3] worked out at 0.6 nM.
Take `CCCC[C@@H]1NC(=O)[C@@H]2CC[C@@H](C2)NC(=O)[C@H]([C@@H](C)c2c[nH]c3c(OC)cccc23)NC(=O)CN(C)C(=O)[C@H](Cc2ccc(C(N)=O)cc2)NC(=O)[C@H](Cc2ccc(C(N)=O)cc2)NC(=O)[C@](C)(CO)NC(=O)[C@H](Cc2c[nH]c3c(C#N)cccc23)NC(=O)[C@H](Cc2ccc(C(=O)O)cc2)NC(=O)[C@H](CC(N)=O)NC(=O)[C@H]2C[C@H](O)CN2C(=O)[C@H](Cc2c[nH]c3ccccc23)NC(=O)[C@@H]2CC[C@@H](O)CN2C(=O)[C@H](Cc2ccncc2)NC1=O` [SEQ ID NO. 45] (cyclo([4Pal][Pip(5R-OH)]W[dHyp]N[Phe(4-COOH)][Trp(7-CN)][αMeS][Phe(4-CONH2)][Phe(4-CONH2)][Sar][Trp(βS-Me,7-OMe)][X1][Nle])): the Kd in experiment [1] (setting [4]) was 0.01 nM; in experiment [2] (setting [5]), greater than 1000 nM. For the same compound, the IC50 in experiment [3] stood at 0.6 nM.
